These results are taken from publication PMC8001353, “Tryptophanol-Derived Oxazolopyrrolidone Lactams as Potential Anticancer Agents against Gastric Adenocarcinoma” (Pharmaceuticals, 2021).

Where only a bound is given, the exact number is not on record here.

For data set [1], the system named is human gastric adenocarcinoma (AGS) cell line. Kind of data set: MTT reduction assay, cell viability / cytotoxicity in AGS cell line. It is filed as cell-based. To be noted: for potency relative to hit 7c (times more potent / fold more active): AGS cells, ratio of IC50 values; for viability at 50 µM: Homo sapiens, AGS cell line, cell viability, MTT, 48 h incubation, mean ± SD, read-out: % CV at 50 µM. The procedure: (§1) The cytotoxicity was assessed in different cell lines with the endpoint MTT, using previously reported procedure. The following cells were obtained from the American Type Culture Collection: human embryonic kidney epithelial cell line (HEK 293T, ATCC HBT-22™), breast cancer cell line (MDA-MB-231, ATCC HTB-26™), osteosarcoma cell line (MG-63, ATCC CRL-1427™), gastric adenocarcinoma cell line (AGS, ATTC CRL-1739TM), prostate cancer cell line (DU-145, ATTC HTB-81™), and lung carcinoma cell line (A-549, ATCC CCL-185™). All cell lines were seeded at 2 × 10^4 cells/well with exception of A-549 cell line, which was seeded at 5 × 10^3 cells/well.
(In general: Tetrazolium assays rely on reduction of a dye to a coloured formazan, in cell work by metabolically active cells.)

The subject of the next data set is A-549 (lung carcinoma). Kind of data set: MTT cytotoxicity assay in A-549. It is filed as cell-based. To be noted: Homo sapiens, A549, 48 h incubation, mean ± SD. The procedure: as §1
A further data set in a line: Human plasma stability. To be noted: human plasma diluted 50% in PBS, 24 h incubation, 37 °C, 100 µM. It is filed as in vitro ADME. The procedure: (§2) Human plasma was obtained from healthy volunteers and provided by Instituto Português do Sangue, Lisbon, Portugal. Buffer and human plasma stabilities were determined by standard methodology. Specifically, human plasma was centrifuged (5 min, 2000× g, room temperature) and, then, diluted 50% in PBS buffer (pH 7.4). The reactions were initiated by the addition of a solution of compound 7s (4 mM in DMSO, 25 µL) to 975 µL of plasma solution, at 37 °C, obtaining a final concentration of 100 µM. Solutions were stirred at 37 °C and 100 µL aliquots were collected at different time points: 0, 30, 60, 120, and 180 min (one additional aliquot was collected at 24 h). A cold reserpine solution (internal standard, 5 µM in acetonitrile, 300 µL) was then added to quench the reactions. Following centrifugation (10 min, 10,000× g, room temperature), the clear supernatants were stored at −20 °C until further analysis by HPLC-DAD. Assays were run in duplicate and procaine was used as a positive control for plasma stability. Additional control assays were conducted using PBS (pH 7.4) instead of a plasma solution. HPLC-DAD analysis was performed as previously described.

Data set [2] concerns caspase 3/7 activity in AGS cells. Description: Caspase 3/7 activity assay (Ac-DEVD-AMC fluorimetric) in AGS cells. To be noted: 48 h incubation at 12.5 µM, vs control, p < 0.05. It is filed as cell-based, human. The procedure: The activity of caspase 3/7 was determined by fluorimetric assay based on the hydrolysis of the peptide substrate acetyl-Asp-Glu-ValAsp-7-amido-4-methylcoumarin (Ac-DEVD-AMC) by caspase 3/7 using a previously reported procedure.

Data set [3] can be described thus: Buffer (PBS pH 7.4) stability. To be noted: PBS pH 7.4, 24 h incubation, 37 °C. In kind it is physicochemical. The procedure:
as §2

Data set [4] can be described thus: Metabolic stability in human liver microsomes with NADPH. In kind it is in vitro ADME. The procedure: The evaluation of the metabolic stability of compound 7s was conducted in human liver microsomes (GIBCO^TM, 20 donors) by a previously reported procedure. Specifically, for a total incubation volume of 1 mL, in 100 mM phosphate buffer at pH 7.4, 7s (10 μM), human liver microsomes (0.8 mg protein/mL), NADPH (1 mM), and NADPH regeneration system (10 µL, Vivid® Regeneration System, 100×) were used. Nevirapine was used as a positive control. Additional control incubations were performed in the absence of 7s or NADPH, and using heat-denatured (90 °C, 15 min) microsomes. The resulting mixtures were incubated at 37 °C, and all assays were run in duplicate. Aliquots (50 µL) were collected at different time points (0, 5, 10, 20, 30, 40, 50, 60, 75, 90, 120, and 180 min and 24 h) and 50 µL of cold reserpine solution (2.5 µM in acetonitrile) was then added to quench the reactions. Following centrifugation (10 min, 10,000× g, 4 °C), the supernatants were stored at −20 °C until LC-MS and LC-HRMS/MS analysis.
Samples from the metabolic stability assay were analyzed by LC-MS using the experimental conditions previously described. The in vitro depletion half-life of 7s, t1/2, was calculated using Equation (1), assuming that the compound follows a first-order kinetic trend (see Supplementary Materials Figure S2). The “slope” was determined from linear fitting of the natural logarithm of the concentration of drug remaining plotted against time. (1) t1/2=ln2/slope
The intrinsic clearance was calculated using Equation (2) (2) CLint = 0.693/ t1/2 × mL incubation/mg microsomes × 45 mg microsomes/g liver × 26 g liver/Kg b.w.
In general terms: Microsomes from liver hold many membrane-bound enzymes, among them those of drug oxidation.

For another data set, the system named is MG-63 (osteosarcoma). Kind of data set: MTT cytotoxicity assay in MG-63. In kind it is cell-based. To be noted: Homo sapiens, 48 h incubation, mean ± SD. The procedure:
as §1

For the compound `O=C1CC[C@]2(c3ccc(-c4ccc(Cl)c(Cl)c4)cc3)OC[C@@H](Cc3c[nH]c4ccccc34)N12` [Compound 7s, (3R,7aR)-3-((1H-indol-3-yl)methyl)-7a-(3’,4’-dichloro-[1,1’-biphenyl]-4-yl)tetrahydropyrrolo[2,1-b]oxazol-5(6H)-one], in data set [1], the “potency relative to hit 7c (times more potent / fold more active)” value is 2.3 and the viability at 50 µM was found to be 8 ± 1%. For the same compound, the IC50 (in general, the concentration that inhibits the measured activity by half) in the data set on A-549 (lung carcinoma) is over 60 µM. Also, the “stability in human plasma” value in the data set “Human plasma stability” is “stability in PBS conditions and under plasmatic enzyme activity”. The “caspase 3/7 activity” value in data set [2] is reported as “significant increase”. For the same compound, in data set [3], the “stability in PBS” value is listed as “chemical stability in PBS conditions”. Moreover, in data set [4], the “in vitro metabolic stability” value is “moderately stable”. The “intrinsic hepatic clearance (CLint)” value in data set [4] (calculated from t1/2 (Equation 2)) is 22.8 min⁻¹ mL⁻¹ kg⁻¹. Further, the half-life at 10 µM in data set [4] (pH 7.4, 10 µM, 37 °C, read-out: half-life (t1/2)) was 45 min.

Turning to `O=C1CC[C@]2(c3ccc(-c4ccc(C(F)(F)F)cc4)cc3)OC[C@@H](Cc3c[nH]c4ccccc34)N12` [Compound 7o, (3R,7aR)-3-((1H-indol-3-yl)methyl)-7a-(4’-(trifluoromethyl)-[1,1’-biphenyl]-4-yl)tetrahydropyrrolo[2,1-b]oxazol-5(6H)-one], in data set [1], the “potency relative to hit 7c (times more potent / fold more active)” value is 2.3 and the viability at 50 µM amounted to 7 ± 1%. This compound also had a half-maximal inhibitory concentration (IC50) in the data set with A-549 (lung carcinoma) of over 60 µM. Besides, the “caspase 3/7 activity” value in data set [2] was “significant increase”. For the same compound, in the data set with MG-63 (osteosarcoma), half-maximal inhibition (IC50) required 26.8 ± 0.4 µM.
